Source: ChEMBL document CHEMBL6182894, “Design, synthesis, and biological evaluation of quinolinyl-ureido-phenyl-hydrazide derivatives and quinolinyl-hydrazide derivatives as anticancer agents targeting Nur77-mediated ferroptosis” (Eur J Med Chem, 2025)
Calls of active or inactive are those of the source. The calls are words filed in the database; no cut-off is given here.

Assays:
MCF7 [1] = assay: Induction of apoptosis in human MCF7 cells assessed as viable cells at 3 uM incubated for 24 hrs by Annexin V-FITC/PI staining based flow cytometry analysis (reference value: 98.1%); format: functional; details: read-out: Activity
MCF7 [2] = assay: Anticancer activity in human MCF7 cells assessed as cell viability at 3 uM in presence of DFO by MTT assay; format: functional, cell-based
HCT-116 = assay: Antiproliferative activity against human HCT-116 cells assessed as inhibition of cell growth by MTT assay
[3] = Cytotoxicity in HaCaT cells assessed as inhibition of cell growth by MTT assay; format: toxicity, cell-based; details: human
MCF7 [4] = assay: Induction of ferroptosis in Nur77 knockout human MCF7 cells assessed as […] incubated for 24 hrs by Western blot analysis; format: functional, cell-based
MCF7 [5] = assay: Induction of apoptosis in human MCF7 cells assessed as necrotic cells at 3 uM incubated for 24 hrs by Annexin V-FITC/PI staining based flow cytometry analysis (Rvb =0.2%); format: functional
HepG2 [6] = assay: Induction of ferroptosis in human HepG2 cells assessed as decrease in GPX4 expression at 3 uM incubated for 24 hrs by Western blot analysis; format: functional, cell-based
MDA-MB-231 = assay: cells; details: Homo sapiens, MDA-MB-231, 24 h
Description: Antiproliferative activity against human MDA-MB-231 cells assessed as inhibition of cell growth incubated for 24 hrs by MTT assay

T47D [7] = assay: cells; details: Homo sapiens, 24 h
Description: Antiproliferative activity against human T47D cells assessed as inhibition of cell growth incubated for 24 hrs by MTT assay

BT-549 = assay: cells; details: Homo sapiens, BT-549, 24 h
Description: Antiproliferative activity against human BT-549 cells assessed as inhibition of cell growth incubated for 24 hrs by MTT assay

MCF7 [8] = assay: Induction of apoptosis in human MCF7 cells assessed as necrotic cells at 6 uM incubated for 24 hrs by Annexin V-FITC/PI staining based flow cytometry analysis (Rvb =0.2%); format: functional
MCF7 [9] = assay: Anticancer activity in human MCF7 cells assessed as reduction in cell viability at 3 uM in presence of fer-1 by MTT assay; format: functional, cell-based
HepG2 [10] = assay: Antiproliferative activity against human HepG2 cells assessed as inhibition of cell growth by MTT assay
MCF7 [11] = assay: Inhibition of colony formation in human MCF7 cells at 4.5 uM incubated for 3 days by crystal violet staining based analysis relative to control; format: functional; details: MCF7, 72 h, time 3 day
[12] = Toxicity in nude BALB/c mouse xenografted with human MCF7 cells assessed as change in body weight at 10 to 20 mg/kg/day, IG administered on alternative days for 21 days; format: organism-based; details: in vivo, po, 504 h, dose 10-20 mg/kg/day, time 21 day
MCF7 [13] = assay: Induction of ferroptosis in Nur77 knockout human MCF7 cells assessed as […] at 3 uM incubated for 24 hrs by BODIPYTM 581/591C11 probe based flow cytometry analysis; format: functional, cell-based
MCF7 [14] = assay: Induction of ferroptosis in Nur77 knockout human MCF7 cells assessed as accumulation of lipid peroxidation at 3 uM incubated for 24 hrs by BODIPYTM 581/591C11 probe based inverted fluorescence microscopic analysis; format: functional, cell-based
MCF7 [15] = assay: Antitumor activity against human MCF7 cells xenografted in nude BALB/c mouse assessed as increase in Nur77 level in tumor at 10 to 20 mg/kg/day, IG administered on alternative days for 21 days by immunohistochemical analysis; format: functional, organism-based; details: dose 10-20 mg/kg/day, time 21.0 day
MCF7 [16] = assay: Antiproliferative activity against Nur77 knockout human MCF7 cells at 3 uM incubated for 24 hrs by EdU staining based analysis; format: functional, cell-based
MCF7 [17] = assay: Induction of ferroptosis in human MCF7 cells assessed as increase in malondialdehyde level at 1.5 to 4.5 uM incubated for 24 hrs by MDA assay; format: functional, cell-based; details: dose 1.5-4.5 µM
MCF7 [18] = assay: Induction of apoptosis in human MCF7 cells assessed as early apoptotic cells at 6 uM incubated for 24 hrs by Annexin V-FITC/PI staining based flow cytometry analysis (Rvb =0.82%); format: functional
[19] = Half life in nude BALB/c mouse at 20 mg/kg, IG measured after 24 hrs; format: ADME, organism-based; details: in vivo, po
MCF7 [20] = assay: Induction of apoptosis in human MCF7 cells assessed as viable cells at 6 uM incubated for 24 hrs by Annexin V-FITC/PI staining based flow cytometry analysis (reference value: 98.1%); format: functional; details: read-out: Activity
MCF7 [21] = assay: cells; details: Homo sapiens, MCF7, 24 h
Description: Antiproliferative activity against human MCF7 cells assessed as inhibition of cell growth incubated for 24 hrs by MTT assay

MCF7 [22] = assay: Antiproliferative activity against human MCF7 cells assessed as inhibition of cell growth at 50 uM by MTT assay relative to control; format: functional
MCF7 [23] = assay: Upregulation of Nur77 protein expression in human MCF7 cells at 3 uM measured at 2 to 10 hrs by Western blot assay; format: functional, cell-based; details: time 2-10 hrs
MCF7 [24] = assay: Antitumor activity against human MCF7 cells xenografted in nude BALB/c mouse assessed as decrease in GPX4 level in tumor at 10 to 20 mg/kg/day, IG administered on alternative days for 21 days by immunohistochemical analysis; format: functional, organism-based; details: dose 10-20 mg/kg/day, time 21.0 day
T47D [25] = assay: Induction of ferroptosis in human T47D cells assessed as increase in malondialdehyde level at 1.5 to 4.5 uM incubated for 24 hrs by MDA assay; format: functional, cell-based; details: dose 1.5-4.5 µM
MCF7 [26] = assay: Induction of apoptosis in human MCF7 cells assessed as late apoptotic cells at 6 uM incubated for 24 hrs by Annexin V-FITC/PI staining based flow cytometry analysis (Rvb =0.86%); format: functional
MCF7 [27] = assay: Induction of apoptosis in human MCF7 cells assessed as early apoptotic cells at 3 uM incubated for 24 hrs by Annexin V-FITC/PI staining based flow cytometry analysis (Rvb =0.82%); format: functional
[28] = Toxicity in nude BALB/c mouse xenografted with human MCF7 cells assessed as appearance of intact hepatic lobules with central veins and cords of radiating hepatocytes at 10 to 20 mg/kg/day, IG administered on alternative days for 21 days by H and E staining analysis; format: organism-based; details: in vivo, po, 504 h, dose 10-20 mg/kg/day, time 21 day
MCF7 [29] = assay: Induction of ROS production in human MCF7 cells at 3 uM incubated for 24 hrs by DCFH-DA staining based flow cytometric analysis; format: functional, cell-based
MCF7 [30] = assay: Induction of apoptosis in human MCF7 cells assessed as late apoptotic cells at 3 uM incubated for 24 hrs by Annexin V-FITC/PI staining based flow cytometry analysis (Rvb =0.86%); format: functional
[31] = Cmax in nude BALB/c mouse at 20 mg/kg, IG measured after 24 hrs; format: ADME, organism-based; details: in vivo, po
MCF7 [32] = assay: Induction of ferroptosis in human MCF7 cells assessed as effect on SLC7A11 expression at 3 uM incubated for 24 hrs in presence of fer-1 by Western blot analysis; format: functional, cell-based
MCF7 [33] = assay: Cytotoxicity in Nur77 knockout human MCF7 cells at 1 to 3 uM incubated for 24 hrs by MTT assay; format: functional, cell-based; details: dose 1-3 µM
HepG2 [34] = assay: Induction of ferroptosis in Nur77 knockout human HepG2 cells assessed as increase in GPX4 expression at 3 uM incubated for 24 hrs by Western blot analysis; format: functional, cell-based
MCF7 [35] = assay: Induction of ferroptosis in human MCF7 cells assessed as decrease in GPX4 expression at 3 uM incubated for 24 hrs in presence of fer-1 by Western blot analysis; format: functional, cell-based
MCF7 [36] = assay: Antitumor activity against human MCF7 cells xenografted in nude BALB/c mouse assessed as tumor growth inhibition at 20 mg/kg/day, IG administered on alternative days for 21 days relative to control; format: functional; details: MCF7, po, 504 h, time 21 day, read-out: TGI
[37] = Cytotoxicity in human MCF-10A cells assessed as inhibition of cell growth by MTT assay; format: toxicity, cell-based
[38] = AUC (0 to infinity) in nude BALB/c mouse at 20 mg/kg, IG measured after 24 hrs; format: ADME, organism-based; details: in vivo, po
MCF7 [39] = assay: Antitumor activity against human MCF7 cells xenografted in nude BALB/c mouse assessed as tumor growth inhibition at 10 mg/kg/day, IG administered on alternative days for 21 days relative to control; format: functional; details: MCF7, po, 504 h, time 21 day, read-out: TGI
MCF7 [40] = assay: Induction of ferroptosis in human MCF7 cells assessed as accumulation of lipid peroxidation at 3 uM incubated for 24 hrs by BODIPYTM 581/591C11 probe based inverted fluorescence microscopic analysis; format: functional, cell-based
MCF7 [41] = assay: Upregulation of Nur77 protein expression in human MCF7 cells at 3 to 6 uM measured at 2 hrs by Western blot assay; format: functional, cell-based; details: dose 3-6 µM
MCF7 [42] = assay: Induction of ROS production in Nur77 knockout human MCF7 cells at 3 uM incubated for 24 hrs by DCFH-DA staining based flow cytometric analysis; format: functional, cell-based

## O=C(Nc1ccc(C(=O)N/N=C/c2cccc(Cl)c2)cc1)Nc1ccc2ncccc2c1
MCF7 [1]
  viability at 3 µM: 97.3%
MCF7 [2]
  Activity: Active
HCT-116
  IC50: 3.26 µM
[3]
  IC50: > 50 µM
MCF7 [4]
  Activity: Active
MCF7 [5]
  Activity: 0.27%
HepG2 [6]
  Activity: Active
MDA-MB-231
  IC50: 3.14 µM
T47D [7]
  IC50: 5.57 µM
BT-549
  IC50: 3.93 µM
MCF7 [8]
  Activity: 0.34%
MCF7 [9]
  Activity: Active
HepG2 [10]
  IC50: 2.15 µM
MCF7 [11]
  inhibition at 4.5 µM: 100%
[12]
  Activity: Non-toxic
MCF7 [13]
  Activity: Active
MCF7 [14]
  Activity: inactive
MCF7 [15]
  Activity: Active
MCF7 [16]
  Activity: Active; Compound Showed Weak Activity Compared To Wild-Type Cells
MCF7 [17]
  Activity: Active
MCF7 [18]
  Activity: 1.29%
[19]
  half-life: 1.49 h
MCF7 [20]
  viability at 6 µM: 94.3%
MCF7 [21]
  IC50: 2.3 µM
MCF7 [22]
  inhibition at 50 µM: 81%
MCF7 [23]
  Activity: inactive
MCF7 [24]
  Activity: Active
T47D [25]
  Activity: Active
MCF7 [26]
  Activity: 4.1%
MCF7 [27]
  Activity: 0.8%
[28]
  Activity: Non-toxic
MCF7 [29]
  Activity: Active
MCF7 [30]
  Activity: 1.65%
[31]
  Cmax: 37.5 ng/mL
MCF7 [32]
  Activity: Active
MCF7 [33]
  Activity: Active; Compound Showed Weak Activity Compared To Wild-Type Cells
HepG2 [34]
  Activity: Active
MCF7 [35]
  Activity: Active
MCF7 [36]
  inhibition in vivo at 20 mg/kg/day: 49%
[37]
  IC50: > 50 µM
[38]
  AUC(0-inf): 58.8 ng·h/mL
MCF7 [39]
  inhibition in vivo at 10 mg/kg/day: 43.5%
MCF7 [40]
  Activity: Active
MCF7 [41]
  Activity: Active
MCF7 [42]
  Activity: inactive
